Results as given in patent US5147875A, “2-(substituted phenyl)-4-oxo-quinazolines” (Sanshin Kogyo Kabishiki Kaisha, priority 1988, dated 1992).

Assays:
[1] = molecular target: calmodulin insensitive cyclic GMP phosphodiesterase; test: Phosphodiesterase activity: inhibition of calmodulin insensitive cyclic GMP phosphodiesterase; format: biochemical; conditions: procedure of European Patent Application No. 293063; read-out: IC50 (concentration of inhibitor required for 50% inhibition of enzyme activity)
Description: The activity of the compounds of the present invention as inhibitors of a calmodulin insensitive cyclic GMP phosphodiesterase was measured using the procedure described in European Patent Application No. 293063. […] The compounds of the present invention have the advantage that they are selective in not inhibiting cyclic AMP phosphodiesterase (type III).

[2] = tested on: U46619-induced broncho-constriction; test: Bronchodilatation in vivo: U46619-induced bronchoconstriction in anaesthetised guinea-pigs; set-up: species or system guinea-pig; conditions: 10 μmol/kg i.v. bolus; anaesthetised male Dunkin Hartley guinea-pigs; U46619 infused i.v. 2.5 nmol/min
Description: Male guinea-pigs of the Dunkin Hartley strain (500-600 g) were anaesthetised with Sagatal (pentobarbital sodium) (60 mg/kg). Airway resistance was measured using a modification of the classical Konzett-Rossler technique (Versuchsanordnung zu Untersuchungen an der Bronchialmuskulatur. Naunyn-Schmiedebergs Arch. Exp. Path. Pharmak., vol 195: pp 71-74, (1940)). U46619 (9,11-methanoepoxy-PGH2) was infused i.v. at a rate of 2.5 nmol/min, this produced a steady state of broncho-constriction (approximately 120% increase from basal airway resistance). The compound under test was administered by i.v. bolus injection, and the subsequent peak inhibition of bronchoconstriction recorded.
Administration of the compound of Example 1 (10 μmol/kg) reduced the U46619-induced broncho-constriction by 34%.

| Structure (SMILES) | IC50 [1] | reduction of U46619-induced broncho-constriction (peak inhibition) [2] |
| --- | --- | --- |
| CCCOc1ccccc1-c1nc2ccccc2c(=O)[nH]1 [Example 1, 2-(2-Propoxyphenyl)quinazolin-4(3H)-one] | 0.71 to 5.3 µM | 34% |
| CCCOc1ccccc1-c1nc2cc(SC)ccc2c(=O)[nH]1 [Example 2, 7-Methylthio-2-(2-propoxyphenyl)quinazolin-4(3H)-one] | 0.71 to 5.3 µM |  |

Further lines, with some results ahead:

| IC50 [1] | Structure (SMILES) | reduction of U46619-induced broncho-constriction (peak inhibition) [2] |
| --- | --- | --- |
| 0.71 to 5.3 µM | CCCOc1ccccc1-c1nc2cc(NC)ccc2c(=O)[nH]1 [Example 5, 7-Methylamino-2-(2-Propoxyphenyl)-4(3H)-quinazolinone] |  |
| 0.71 to 5.3 µM | CCCOc1ccccc1-c1nc2cc(N)ccc2c(=O)[nH]1 [Example 4, 7-Amino-2-(2-Propoxyphenyl)-4(3H)-quinazolinone] |  |
| 0.71 to 5.3 µM | CCCOc1ccccc1-c1nc2cc([N+](=O)[O-])ccc2c(=O)[nH]1 [Example 3, 7-Nitro-2-(2-Propoxyphenyl)-4(3H)-quinazolinone] |  |
